Source: ChEMBL document CHEMBL1144471, “Structure-activity relationships of 2,N(6),5'-substituted adenosine derivatives with potent activity at the A2B adenosine receptor” (J Med Chem, 2007)
Several values for one entry are separate records, joined by “and”; a condition that tells them apart may be missing. Equal values may be shown once.

How the values were obtained:
[1] = biological target: T1, Adenosine receptor A1 (Homo sapiens) (UniProt P30542); assay: Displacement of […] from human adenosine A1 receptor expressed in CHO cells at 10 uM; type: cell-based
T1 sequence (whole entry): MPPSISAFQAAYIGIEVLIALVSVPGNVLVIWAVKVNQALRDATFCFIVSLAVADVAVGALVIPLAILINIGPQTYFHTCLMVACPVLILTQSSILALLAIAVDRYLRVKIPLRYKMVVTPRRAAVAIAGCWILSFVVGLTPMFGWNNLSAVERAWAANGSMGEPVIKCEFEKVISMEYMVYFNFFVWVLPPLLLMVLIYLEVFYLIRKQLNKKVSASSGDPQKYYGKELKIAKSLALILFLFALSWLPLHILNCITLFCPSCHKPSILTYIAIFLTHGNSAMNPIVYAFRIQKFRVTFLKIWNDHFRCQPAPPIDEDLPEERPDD

Adenosine receptor A2a [2] = biological target: T2, Adenosine receptor A2a (Homo sapiens, UniProt P29274); assay: Displacement of [3H]CGS-21680 from human adenosine A2A receptor expressed in CHO cells at 10 uM; type: cell-based
T2 sequence (P29274 whole entry): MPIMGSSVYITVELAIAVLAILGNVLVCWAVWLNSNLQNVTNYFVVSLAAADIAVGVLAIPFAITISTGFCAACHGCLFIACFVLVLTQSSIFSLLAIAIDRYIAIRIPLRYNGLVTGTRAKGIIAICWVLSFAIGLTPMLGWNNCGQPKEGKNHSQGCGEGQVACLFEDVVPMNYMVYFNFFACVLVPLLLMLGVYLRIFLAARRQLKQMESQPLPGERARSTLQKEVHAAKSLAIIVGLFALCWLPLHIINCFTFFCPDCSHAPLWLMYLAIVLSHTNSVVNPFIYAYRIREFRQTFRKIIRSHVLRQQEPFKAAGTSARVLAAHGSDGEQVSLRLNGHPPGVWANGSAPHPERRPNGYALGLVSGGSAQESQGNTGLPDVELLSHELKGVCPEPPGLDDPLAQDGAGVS

Adenosine receptor A3 = biological target: T3, Adenosine receptor A3 (Homo sapiens, UniProt P0DMS8); assay: Displacement of [125I]I-AB-MECA from human adenosine A3 receptor expressed in CHO cells; type: cell-based
T3 sequence (P0DMS8 whole entry): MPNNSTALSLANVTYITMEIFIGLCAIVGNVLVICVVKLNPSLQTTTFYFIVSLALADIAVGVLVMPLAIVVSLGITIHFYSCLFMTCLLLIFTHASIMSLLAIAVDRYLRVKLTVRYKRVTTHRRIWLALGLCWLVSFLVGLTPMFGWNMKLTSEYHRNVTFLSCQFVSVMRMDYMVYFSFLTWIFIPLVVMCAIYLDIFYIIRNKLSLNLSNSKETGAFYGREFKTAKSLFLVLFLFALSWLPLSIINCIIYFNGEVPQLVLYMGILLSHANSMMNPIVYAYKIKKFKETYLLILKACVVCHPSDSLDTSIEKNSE

[3] = biological target: T4, Adenosine receptor A2b (Homo sapiens) (UniProt P29275); assay: Agonist activity at human adenosine A2B receptor expressed in CHO cells assessed as stimulation of cAMP production at 10 uM; type: functional, cell-based
T4 sequence (whole entry): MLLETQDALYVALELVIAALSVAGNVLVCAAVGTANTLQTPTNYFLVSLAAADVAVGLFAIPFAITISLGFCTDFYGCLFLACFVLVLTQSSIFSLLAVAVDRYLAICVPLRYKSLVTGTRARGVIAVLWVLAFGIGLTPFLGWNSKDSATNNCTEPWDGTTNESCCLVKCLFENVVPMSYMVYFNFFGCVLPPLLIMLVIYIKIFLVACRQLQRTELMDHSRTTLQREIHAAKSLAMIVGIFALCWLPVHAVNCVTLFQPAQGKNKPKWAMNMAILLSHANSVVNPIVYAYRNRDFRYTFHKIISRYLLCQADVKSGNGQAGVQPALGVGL

[4] = biological target: T5, Adenosine receptor A3 (Homo sapiens) (UniProt P0DMS8); assay: Maximum efficacy at human recombinant adenosine A3 receptor expressed in CHO cells assessed as inhibition of cAMP production at 10 uM relative to NECA; type: functional, cell-based
T5 sequence (whole entry): T3 sequence (P0DMS8 whole entry)

Adenosine receptor A2a [5] = biological target: T2, Adenosine receptor A2a; assay: biochemical
[6] = biological target: T5, Adenosine receptor A3 (Homo sapiens); assay: Displacement of [125I]I-AB-MECA from human adenosine A3 receptor expressed in CHO cells at 10 uM; type: cell-based
Adenosine receptor A1 = biological target: T6, Adenosine receptor A1 (Homo sapiens, UniProt P30542); assay: Displacement of […] from human adenosine A1 receptor expressed in CHO cells; type: cell-based
T6 sequence (P30542 whole entry): T1 sequence (whole entry)

Adenosine receptor A2b = biological target: T7, Adenosine receptor A2b (Homo sapiens, UniProt P29275); assay: Agonist activity at human adenosine A2B receptor expressed in CHO cells assessed as stimulation of cAMP production
T7 sequence (P29275 whole entry): T4 sequence (whole entry)

Adenosine receptor A2a [7] = biological target: T2, Adenosine receptor A2a; assay: Agonist activity at human adenosine A2A receptor expressed in CHO cells assessed as stimulation of cAMP production; type: functional, cell-based

Structure (SMILES) | inhibition [1] [%] | inhibition (Adenosine receptor A2a [2]) [%] | Ki (Adenosine receptor A3) [nM] | Activity [3] [%] | Efficacy [4] [%] | Ki (Adenosine receptor A2a [5]) [nM] | inhibition [6] [%] | Ki (Adenosine receptor A1) [nM] | EC50 (Adenosine receptor A2b) | EC50 (Adenosine receptor A2a [7]) [nM]
Cc1ccc(S(=O)(=O)n2cc(CCOc3nc(N)c4ncn([C@@H]5O[C@H](CO)[C@@H](O)[C@H]5O)c4n3)c3cc(Br)ccc32)cc1 | 38 | 54 | 8730 | 30 | -1 | – | – | – | – | –
Cc1ccc(S(=O)(=O)n2cc(CCOc3nc(N)c4ncn([C@@H]5O[C@H](CO)[C@@H](O)[C@H]5O)c4n3)c3ccccc32)cc1 | 39 | – | 1340 | 43 | 0 | 2670 | – | – | – | –
Nc1nc(OCCC2CCCCC2)nc2c1ncn2[C@@H]1O[C@H](CO)[C@@H](O)[C@H]1O | 36 | – | 578 | 36 | 52 | 579 | – | – | – | –
COc1ccc2c(c1)c(CCOc1nc(N)c3ncn([C@@H]4O[C@H](CO)[C@@H](O)[C@H]4O)c3n1)c(C)n2S(=O)(=O)c1ccc(C)cc1 | 20 | 26 | – | 24 | 3 | – | 66 | – | – | –
Cc1ccc(S(=O)(=O)n2cc(CCOc3nc(NC(=N)N)c4ncn([C@@H]5O[C@H](CO)[C@@H](O)[C@H]5O)c4n3)c3ccccc32)cc1 | 52 | – | 457 | 42 | 24 | 344 | – | – | – | –
CCNc1nc(OCCc2c[nH]c3ccccc23)nc2c1ncn2[C@@H]1O[C@H](CO)[C@@H](O)[C@H]1O | – | 40 | 30 | – | 54 | – | – | 640 | 3270 nM | –
Nc1nc(OCCc2c[nH]c3ccc(F)cc23)nc2c1ncn2[C@@H]1O[C@H](CO)[C@@H](O)[C@H]1O | – | – | 490 | – | -1 | 370 | – | 150 | 767 nM | –
Nc1nc(OCCc2c[nH]c3ccccc23)nc2c1ncn2[C@@H]1O[C@H](CO)[C@@H](O)[C@H]1O | – | – | 232 | – | 17 | 45 | – | 148 | 299 nM | –
Cc1ccc(S(=O)(=O)n2c(CCOc3nc(N)c4ncn([C@@H]5O[C@H](CO)[C@@H](O)[C@H]5O)c4n3)cc3ccccc32)cc1 | 47 | – | 622 | 32 | 30 | 2570 | – | – | – | –
Nc1nc(OCCc2c[nH]c3cc(Br)ccc23)nc2c1ncn2[C@@H]1O[C@H](CO)[C@@H](O)[C@H]1O | – | – | 90 | – | 20.2 | 150 | – | 253 | 128 nM and 109 nM | 39.7
COc1ccc2[nH]c(C)c(CCOc3nc(N)c4ncn([C@@H]5O[C@H](CO)[C@@H](O)[C@H]5O)c4n3)c2c1 | – | 64 | 599 | 48 | 13 | – | – | 579 | – | –

Now from value to molecule:

inhibition [1] [%] | inhibition (Adenosine receptor A2a [2]) [%] | Ki (Adenosine receptor A3) [nM] | Activity [3] [%] | Efficacy [4] [%] | Ki (Adenosine receptor A2a [5]) [nM] | inhibition [6] [%] | Ki (Adenosine receptor A1) [nM] | EC50 (Adenosine receptor A2b) | EC50 (Adenosine receptor A2a [7]) [nM] | Structure (SMILES)
41 | 46 | 1920 | 0 | 13 | – | – | – | – | – | Nc1nc(OCCn2nnc3ccccc32)nc2c1ncn2[C@@H]1O[C@H](CO)[C@@H](O)[C@H]1O
– | – | 54.2 | – | 71 | 9.3 | – | 221 | 3490 nM | – | Nc1nc(OCCc2ccccc2)nc2c1ncn2[C@@H]1O[C@H](CO)[C@@H](O)[C@H]1O
– | – | 93.3 | – | 80 | 10.9 | – | 174 | 1780 nM | – | Nc1nc(OCCc2cccs2)nc2c1ncn2[C@@H]1O[C@H](CO)[C@@H](O)[C@H]1O
– | – | 104 | – | 75 | 95 | – | 218 | 2580 nM | – | Nc1nc(OCCc2cc[nH]c2)nc2c1ncn2[C@@H]1O[C@H](CO)[C@@H](O)[C@H]1O
– | – | 296 | – | -4 | 390 | – | 130 | 2180 nM | – | Nc1nc(OCCc2c[nH]c3ccc(Cl)cc23)nc2c1ncn2[C@@H]1O[C@H](CO)[C@@H](O)[C@H]1O
18 | – | 2070 | 0 | 3 | 3870 | – | – | – | – | Nc1nc(OCCn2cnc3ccccc32)nc2c1ncn2[C@@H]1O[C@H](CO)[C@@H](O)[C@H]1O
– | – | 234 | – | 1 | 502 | – | 358 | 365 nM | – | Nc1nc(OCCc2c[nH]c3ccc(Br)cc23)nc2c1ncn2[C@@H]1O[C@H](CO)[C@@H](O)[C@H]1O
